Assay [1] deals with HL-60(TB). As to the kind of experiment: NCI single-dose growth inhibition screen. Type of assay: cell-based. Particulars: Homo sapiens; Leukemia HL-60(TB); single dose 10^−5 M.
In assay [2] the test system is K-562. Briefly: NCI single-dose growth inhibition screen. The format is cell-based. As to conditions: Homo sapiens, K562; Leukemia K-562; single dose 10^−5 M.
In assay [3] the test system is A549/ATCC. As to the kind of experiment: NCI single-dose growth inhibition screen. The format is cell-based. Particulars: Homo sapiens; Non-Small Cell Lung Cancer A549/ATCC; single dose 10^−5 M.
The test system of assay [4] is HOP-62. As to the kind of experiment: NCI single-dose growth inhibition screen. Particulars: Homo sapiens; Non-Small Cell Lung Cancer HOP-62; single dose 10^−5 M. Type of assay: cell-based.
For assay [5], the system named is NCI-H322M. As to the kind of experiment: NCI single-dose growth inhibition screen. Type of assay: cell-based. Particulars: Homo sapiens; Non-Small Cell Lung Cancer NCI-H322M; single dose 10^−5 M.
The test system of assay [6] is NCI-H522. As to the kind of experiment: NCI single-dose growth inhibition screen. The format is cell-based. Particulars: Homo sapiens; Non-Small Cell Lung Cancer NCI-H522; single dose 10^−5 M.
In assay [7] the test system is MDA-MB-435. As to the kind of experiment: NCI single-dose growth inhibition screen. Particulars: Homo sapiens; Melanoma MDA-MB-435; single dose 10^−5 M. Type of assay: cell-based.
The test system of assay [8] is SK-MEL-2. As to the kind of experiment: NCI single-dose growth inhibition screen. The format is cell-based. Particulars: Homo sapiens; Melanoma SK-MEL-2; single dose 10^−5 M.
The subject of assay [9] is SK-MEL-28. Briefly: NCI single-dose growth inhibition screen. As to conditions: Homo sapiens; Melanoma SK-MEL-28; single dose 10^−5 M. The format is cell-based.
The subject of assay [10] is SK-MEL-5. As to the kind of experiment: NCI single-dose growth inhibition screen. As to conditions: Homo sapiens, SK-MEL-5, Melanoma SK-MEL-5; single dose 10^−5 M. Type of assay: cell-based, human.
For assay [11], the system named is UACC-257. Briefly: NCI single-dose growth inhibition screen. The format is cell-based. As to conditions: Homo sapiens; Melanoma UACC-257; single dose 10^−5 M.
For assay [12], the system named is IGROV1. As to the kind of experiment: NCI single-dose growth inhibition screen. Particulars: Homo sapiens, IGROV-1; Ovarian Cancer IGROV1; single dose 10^−5 M. The format is cell-based.
For assay [13], the system named is OVCAR-4. As to the kind of experiment: NCI single-dose growth inhibition screen. Type of assay: cell-based. Particulars: Homo sapiens; Ovarian Cancer OVCAR-4; single dose 10^−5 M.
Assay [14] has as its system RXF 393. Briefly: NCI single-dose growth inhibition screen. As to conditions: Homo sapiens; Renal Cancer RXF 393; single dose 10^−5 M. Type of assay: cell-based.
Assay [15] relates to UO-31. As to the kind of experiment: NCI single-dose growth inhibition screen. As to conditions: Homo sapiens, UO-31, Renal Cancer UO-31; single dose 10^−5 M. Type of assay: cell-based, human.
The subject of assay [16] is MDA-MB-468. Briefly: NCI single-dose growth inhibition screen. The format is cell-based. Particulars: Homo sapiens; Breast Cancer MDA-MB-468; single dose 10^−5 M.
Assay [17] concerns DU-145. Briefly: NCI single-dose growth inhibition screen. Type of assay: cell-based. As to conditions: Homo sapiens; Prostate Cancer DU-145; single dose 10^−5 M.
Assay [18] has as its system S. aureus ATCC 6538. As to the kind of experiment: Antibacterial screening, agar cup diffusion method. As to conditions: Staphylococcus aureus, ATCC6538; Gram + ve strain; read-out: Minimum inhibitory concentrations (MIC, µM) S. aureus ATCC 6538. The format is cell-based.
Experimental: (§1) Anti-bacterial activity of the recently synthesized compounds 3a-k was evaluated at AUMC (Assiut University Mycological Centre), Assiut, Egypt. Assays were done against Gram-negative strains of K. pneumoniae (ATCC 100310, E. coli (ATCC 25922), Pseudomonas aeruginosa (ATCC 27853) and the Gram-positive S. aureus (ATCC 6538) strain utilizing standard agar cup diffusion method. The isolates from the four bacterial species examined were kept in TSB (Trypticase Soya Broth, Becton and Dickinson) with 10% glycerol at -70 °C and then subcultured on TSA (Trypticase Soya Agar, Becton and Dickinson) and TSB for 24 h at 37 °C former to inoculation. Bacterial isolates were then plated on sterile petri plates with 1 × 10^8 CFU/mL (0.5 McFarland turbidity) and 20 mL of Mueller Hinton Agar media (Oxoid) was then loaded. To ensure that the microorganisms were evenly dispersed, the plates were gently rotated before being left to harden on a level surface. Four equally spaced spherical-shaped wells (10 mm diameter) were painstakingly drilled using a sterilized cork bore after media solidification. All tested compounds under test underwent two-fold serial dilutions in a sequential manner. Three replications of 100 µL of each concentration were added to a well using a micropipette. Plates were then incubated for 24-hour at 37 °C. The average of the inhibition zones was then calculated. To determine the MICs, the natural logarithm of each diluted test substance’s concentration was plotted against the average area of the related inhibition zone. Following that, a regression line was created and the intercept on the ‘ln concentration” axis was determined, and the antilogarithm was calculated to indicate the MIC value[34],[63].
Assay [19] deals with E. coli ATCC 25,922. Briefly: Antibacterial screening, agar cup diffusion method. Type of assay: cell-based. As to conditions: read-out: Minimum inhibitory concentrations (MIC, µM) E. coli ATCC 25,922.
Experimental: as §1
Assay [20] deals with A498 renal cancer cell line. Briefly: cells. Particulars: Homo sapiens, A498.
The mark [21] stands for this setting: Escherichia coli, ATCC25, Gram –ve strain.

Structures are written as SMILES. Converted amounts (≈) assume the structure as drawn. Like-named read-outs stand apart in the source and are kept apart here. Where only a bound is given, the exact number is not on record here.

Our source for the inhibition, MIC and viability values is article PMC11480511 (Scientific Reports, 2024).

As usually defined, the inhibition is the percentage by which the read-out fell short of the control. The low end stands for little suppression, the high end for strong suppression. What is called viability is a read-out of living cells in per cent, often relative to untreated cells.

Consider `Cc1ccc(/C=C2\SC(=O)N(CCCC(=O)N3CCN(c4cc5c(cc4F)c(=O)c(C(=O)O)cn5C4CC4)CC3)C2=O)cc1` [3c], for which the inhibition at 10 µM in [1] is 6.2%; in assay [2] it was less than 0%; in assay [3] it was less than 0%; in assay [4], less than 0%; in [5], less than 0%; in [6] it was 1.7%. Further, the inhibition at 10 µM in assay [7] was less than 0%; in [8] it was less than 0%; in assay [9] it was less than 0%; in assay [10] it was 3.8%; in assay [11], less than 0%; in assay [12], 3.2%. The inhibition at 10 µM in [13] is less than 0%; in assay [14], 7.2%; in assay [15] it was 16.5%; in assay [16], less than 0%; in [17] it was less than 0%. In addition, the MIC in [18] is more than 20 µM; in [19] (setting [21]), 0.48 µM (≈ 0.297 µg/mL).
Regarding `COc1cc(/C=C2\SC(=O)N(CCCC(=O)N3CCN(c4cc5c(cc4F)c(=O)c(C(=O)O)cn5C4CC4)CC3)C2=O)cc(OC)c1OC` [3 g], the inhibition at 10 µM was less than 0% in [1]; less than 0% in [2]; 3.5% in [3]; less than 0% in [4]; 5.1% in [5]; 3.3% in assay [6]. Also, the inhibition at 10 µM is less than 0% in [7]; less than 0% in assay [8]; less than 0% in assay [9]; less than 0% in assay [10]; 6.7% in assay [11]; less than 0% in [12]. In addition, the inhibition at 10 µM in assay [13] was less than 0%; in assay [14], less than 0%; in assay [15] it was 1.5%; in assay [16], less than 0%; in [17], less than 0%. For the same compound, the MIC in [18] was more than 20 µM; in assay [19] (setting [21]) it was 0.25 µM (≈ 0.174 µg/mL).
Consider `COc1ccc(/C=C2\SC(=O)N(CCCC(=O)N3CCN(c4cc5c(cc4F)c(=O)c(C(=O)O)cn5C4CC4)CC3)C2=O)cc1OC` [3f], for which the inhibition at 10 µM in assay [1] was 1.9%; in [2], 1.1%; in assay [3], 1.3%; in [4], less than 0%; in assay [5], 4.2%; in assay [6] it was 7.8%. Besides, the inhibition at 10 µM in assay [7] was less than 0%; in assay [8] it was 2.8%; in assay [9], less than 0%; in [10], 1.9%; in [11], 12.3%; in assay [12], less than 0%. Moreover, the inhibition at 10 µM was less than 0% in assay [13]; less than 0% in assay [14]; 14.5% in assay [15]; less than 0% in [16]; less than 0% in assay [17]. Moreover, the MIC in assay [18] was more than 20 µM; in assay [19] (setting [21]), 1.94 to 2.6 µM (≈ 1.29 to 1.73 µg/mL); in [19] (Gram –ve strain), 2.23 µM (≈ 1.48 µg/mL).
On to `O=C(O)c1cn(C2CC2)c2cc(N3CCN(C(=O)CCCN4C(=O)SC(=Cc5cccc([N+](=O)[O-])c5)C4=O)CC3)c(F)cc2c1=O` [3d, 1-cyclopropyl-6-fluoro-7-[4-[4-[5-[(3-nitrophenyl)methylene]-2,4-dioxo-thiazolidin-3-yl]butanoyl]piperazin-1-yl]-4-oxoquinoline-3-carboxylic acid], for which the inhibition at 10 µM in assay [1] is less than 0%; in assay [2], less than 0%; in assay [3], 7.8%; in [4], 5.2%; in assay [5], 6.8%; in [6] it was 20.7%. Moreover, the inhibition at 10 µM in [7] is less than 0%; in assay [8] it was 2.9%; in assay [9] it was less than 0%; in [10], 2.3%; in assay [11] it was 8.1%; in assay [12], 1.6%. Also, the inhibition at 10 µM is 2.6% in assay [13]; less than 0% in assay [14]; 20.7% in assay [15]; 0.5% in assay [16]; less than 0% in assay [17]. In addition, the MIC in [18] is more than 20 µM; in [19] (setting [21]), 0.2 µM (≈ 0.13 µg/mL).
For the compound `COc1ccc(C=C2SC(=O)N(CCCC(=O)N3CCN(c4cc5c(cc4F)c(=O)c(C(=O)O)cn5C4CC4)CC3)C2=O)cc1` [3e, 1-cyclopropyl-6-fluoro-7-[4-[4-[5-[(4-methoxyphenyl)methylene]-2,4-dioxo-thiazolidin-3-yl]butanoyl]piperazin-1-yl]-4-oxoquinoline-3-carboxylic acid], the inhibition at 10 µM is less than 0% in [1]; less than 0% in [2]; 7.9% in [3]; less than 0% in assay [4]; 6% in assay [5]; 25.7% in assay [6]. Moreover, the inhibition at 10 µM in [7] is less than 0%; in assay [8] it was 6.5%; in [9], less than 0%; in assay [10], 3.9%; in assay [11], 19.7%; in assay [12] it was less than 0%. Moreover, the inhibition at 10 µM in assay [13] is less than 0%; in [14], less than 0%; in [15], 18.5%; in assay [16], less than 0%; in [17], less than 0%. In addition, the figures for the MIC in assay [18], in assay [19] (setting [21]) and in [19] (Gram –ve strain) were more than 20 µM, 1.94 to 2.6 µM (≈ 1.23 to 1.65 µg/mL) and 1.94 µM (≈ 1.23 µg/mL), respectively. For the same compound, in assay [20], the viability at 0.4 µM worked out at 102%. The viability at 1.6 µM in [20] stood at 91.7%. The viability at 25 µM in assay [20] was 69.4%. The viability at 100 µM in assay [20] came out at 56.2%.
With `O=C(O)c1cn(C2CC2)c2cc(N3CCN(C(=O)CCCN4C(=O)S/C(=C\c5ccc(Cl)cc5)C4=O)CC3)c(F)cc2c1=O` [3 h], the inhibition at 10 µM is less than 0% in assay [1]; 0.7% in assay [2]; 3.4% in assay [3]; 2.9% in [4]; 11.8% in [5]; 18.3% in assay [6]. Further, the inhibition at 10 µM is less than 0% in assay [7]; 7.3% in assay [8]; less than 0% in assay [9]; 1.1% in assay [10]; 5.1% in [11]; less than 0% in [12]. Besides, the inhibition at 10 µM is 5.1% in assay [13]; less than 0% in assay [14]; 28% in [15]; less than 0% in [16]; less than 0% in assay [17]. Further, the MIC in [18] is more than 20 µM; in assay [19] (setting [21]), 0.04 µM (≈ 0.0256 µg/mL).
